{
  "source": "ChEMBL document CHEMBL1201862",
  "about": "“PubChem BioAssay data set” (2004)",
  "key": {"[1]": {"test": "Luminescence Cell-Based Dose Confirmation HTS to Identify Inhibitors of Polyadenylation.", "type": "functional"}, "[2]": {"test": "blockers of CRF-binding protein–CRF-R2 complex – cell-based, uHTS hits, 384-well, dose response (AID 651639)", "type": "functional, Homo sapiens", "conditions": "read-out: IC50_Mean"}, "Genome polyprotein": {"target": "Genome polyprotein (dengue virus type 2, UniProt P29990)", "sequence (P29990 2492-3391 limits assumed)": "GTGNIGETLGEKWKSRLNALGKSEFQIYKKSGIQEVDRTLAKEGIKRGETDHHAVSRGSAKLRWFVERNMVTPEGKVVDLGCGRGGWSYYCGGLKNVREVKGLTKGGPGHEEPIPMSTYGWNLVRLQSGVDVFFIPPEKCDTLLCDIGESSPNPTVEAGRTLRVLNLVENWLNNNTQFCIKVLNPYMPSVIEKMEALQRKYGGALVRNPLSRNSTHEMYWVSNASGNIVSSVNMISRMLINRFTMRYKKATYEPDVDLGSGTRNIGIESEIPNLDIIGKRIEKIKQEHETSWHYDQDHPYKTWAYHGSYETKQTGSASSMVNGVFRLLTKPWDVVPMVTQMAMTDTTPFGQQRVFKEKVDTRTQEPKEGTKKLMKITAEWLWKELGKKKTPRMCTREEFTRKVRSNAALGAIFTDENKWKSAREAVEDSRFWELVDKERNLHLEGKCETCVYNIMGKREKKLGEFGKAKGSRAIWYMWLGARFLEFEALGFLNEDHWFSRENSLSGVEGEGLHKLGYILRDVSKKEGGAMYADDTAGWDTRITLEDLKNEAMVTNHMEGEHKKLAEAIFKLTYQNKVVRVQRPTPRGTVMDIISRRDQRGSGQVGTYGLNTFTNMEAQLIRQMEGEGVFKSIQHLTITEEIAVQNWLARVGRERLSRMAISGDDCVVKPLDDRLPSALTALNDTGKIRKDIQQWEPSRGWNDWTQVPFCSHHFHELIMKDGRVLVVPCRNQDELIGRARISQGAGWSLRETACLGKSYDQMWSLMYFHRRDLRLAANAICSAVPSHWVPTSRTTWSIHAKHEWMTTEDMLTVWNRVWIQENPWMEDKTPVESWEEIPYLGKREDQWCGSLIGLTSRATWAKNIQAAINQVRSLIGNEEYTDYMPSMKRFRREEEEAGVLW", "test": "flavivirus cap methylation enzyme inhibition – biochemical, confirmation dose response, primary screen (AID 588689)", "type": "functional"}, "Vero": {"test_system": "Vero", "test": "viability of Vero cells under compound – cytotoxicity control for flavivirus capping enzyme inhibitors (AID 588742)", "type": "functional", "conditions": "Chlorocebus sabaeus"}, "[3]": {"target": "T1, Corticotropin-releasing factor receptor 2/Corticotropin-releasing factor-binding protein (Homo sapiens, UniProt P24387+Q13324)", "T1 sequence (Q13324 whole entry)": "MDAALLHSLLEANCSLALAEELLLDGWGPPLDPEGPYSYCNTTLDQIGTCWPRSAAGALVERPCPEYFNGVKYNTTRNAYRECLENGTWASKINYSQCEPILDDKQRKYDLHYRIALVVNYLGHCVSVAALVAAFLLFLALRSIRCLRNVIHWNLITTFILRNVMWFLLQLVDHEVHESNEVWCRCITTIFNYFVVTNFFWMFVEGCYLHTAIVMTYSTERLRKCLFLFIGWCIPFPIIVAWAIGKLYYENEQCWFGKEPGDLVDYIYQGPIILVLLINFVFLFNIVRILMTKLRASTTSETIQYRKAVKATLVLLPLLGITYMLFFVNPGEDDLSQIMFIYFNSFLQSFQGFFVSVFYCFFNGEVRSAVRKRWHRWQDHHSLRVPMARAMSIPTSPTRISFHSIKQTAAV", "T1 sequence (P24387 whole entry)": "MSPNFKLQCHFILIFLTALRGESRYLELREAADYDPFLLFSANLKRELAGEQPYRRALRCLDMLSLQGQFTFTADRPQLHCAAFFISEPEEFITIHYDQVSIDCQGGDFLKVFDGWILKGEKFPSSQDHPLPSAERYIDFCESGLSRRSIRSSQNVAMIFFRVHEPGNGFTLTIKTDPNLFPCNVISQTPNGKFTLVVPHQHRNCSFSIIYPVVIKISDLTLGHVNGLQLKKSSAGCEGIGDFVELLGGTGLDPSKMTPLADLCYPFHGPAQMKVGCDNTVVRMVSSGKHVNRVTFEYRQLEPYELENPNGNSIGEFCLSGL", "test": "activators of CRF receptor 2 with binding protein – uHTS hits, confirmation (AID 602473)", "type": "functional", "conditions": "read-out: EC50_Mean"}, "[4]": {"target": "T1, Corticotropin-releasing factor receptor 2/Corticotropin-releasing factor-binding protein", "test": "Dose Response confirmation of uHTS hits for small molecule antagonists of the CRF-binding protein and CRF-R2 receptor complex.", "type": "functional", "conditions": "read-out: IC50_Mean"}, "[5]": {"target": "T2, Replicative DNA helicase DnaB (Mycobacterium tuberculosis, UniProt P9WMR3)", "T2 sequence (P9WMR3 whole entry)": "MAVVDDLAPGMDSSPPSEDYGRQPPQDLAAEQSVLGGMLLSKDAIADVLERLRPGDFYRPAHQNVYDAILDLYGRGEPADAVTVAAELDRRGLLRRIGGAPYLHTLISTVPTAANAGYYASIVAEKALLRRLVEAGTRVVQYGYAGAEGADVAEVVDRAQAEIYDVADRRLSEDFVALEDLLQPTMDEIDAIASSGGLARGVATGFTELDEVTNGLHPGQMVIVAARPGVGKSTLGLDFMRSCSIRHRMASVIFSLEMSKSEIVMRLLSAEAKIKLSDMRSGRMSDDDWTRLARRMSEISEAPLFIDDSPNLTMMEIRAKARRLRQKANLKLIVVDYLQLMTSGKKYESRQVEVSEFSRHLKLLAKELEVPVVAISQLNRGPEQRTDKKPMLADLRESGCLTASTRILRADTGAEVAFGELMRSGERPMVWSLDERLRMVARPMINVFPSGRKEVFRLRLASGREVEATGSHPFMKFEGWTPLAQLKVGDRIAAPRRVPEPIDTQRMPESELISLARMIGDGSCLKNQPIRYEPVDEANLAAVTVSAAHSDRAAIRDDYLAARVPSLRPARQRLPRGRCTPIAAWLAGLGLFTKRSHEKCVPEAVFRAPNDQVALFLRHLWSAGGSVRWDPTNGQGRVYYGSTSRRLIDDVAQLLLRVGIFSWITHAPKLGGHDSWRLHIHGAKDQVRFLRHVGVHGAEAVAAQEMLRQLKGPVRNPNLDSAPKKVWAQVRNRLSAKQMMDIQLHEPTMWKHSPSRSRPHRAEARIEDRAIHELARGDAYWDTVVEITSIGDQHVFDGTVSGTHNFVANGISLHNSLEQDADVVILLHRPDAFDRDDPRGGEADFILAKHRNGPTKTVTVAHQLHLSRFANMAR", "test": "DnaB intein splicing inhibitors, dose response, biochemical, cell-free fluorescence (AID 449749)", "type": "functional"}, "Protein RecA": {"target": "T3, Protein RecA (Mycobacterium tuberculosis, UniProt P9WHJ3)", "T3 sequence (P9WHJ3 whole entry)": "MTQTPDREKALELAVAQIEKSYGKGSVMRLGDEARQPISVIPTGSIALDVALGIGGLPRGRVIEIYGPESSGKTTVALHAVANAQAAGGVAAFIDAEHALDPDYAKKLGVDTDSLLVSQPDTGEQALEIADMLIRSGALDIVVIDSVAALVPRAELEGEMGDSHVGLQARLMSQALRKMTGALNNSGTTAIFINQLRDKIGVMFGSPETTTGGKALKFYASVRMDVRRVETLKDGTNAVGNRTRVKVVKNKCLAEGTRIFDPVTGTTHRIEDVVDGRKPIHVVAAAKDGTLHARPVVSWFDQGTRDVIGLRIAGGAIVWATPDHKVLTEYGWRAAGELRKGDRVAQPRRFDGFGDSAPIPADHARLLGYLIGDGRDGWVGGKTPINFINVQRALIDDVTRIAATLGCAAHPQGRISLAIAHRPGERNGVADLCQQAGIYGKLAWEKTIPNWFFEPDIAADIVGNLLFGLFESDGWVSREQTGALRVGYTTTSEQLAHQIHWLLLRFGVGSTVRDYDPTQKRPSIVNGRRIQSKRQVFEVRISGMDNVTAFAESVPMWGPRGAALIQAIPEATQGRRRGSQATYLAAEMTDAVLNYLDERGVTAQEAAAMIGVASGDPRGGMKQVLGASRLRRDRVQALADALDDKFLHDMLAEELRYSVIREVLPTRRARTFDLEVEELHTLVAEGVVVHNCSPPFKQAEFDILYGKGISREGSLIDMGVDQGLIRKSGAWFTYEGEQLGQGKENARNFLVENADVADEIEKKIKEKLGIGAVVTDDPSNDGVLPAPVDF", "test": "Fluorescence Cell-Free Homogeneous Dose Retest to Identify Inhibitors of RecA-Intein Splicing Activity. [Related pubchem assays (depositor defined):AID2097, AID2223, AID489010, AID492950]", "type": "functional"}, "[6]": {"target": "Voltage-gated inwardly rectifying potassium channel KCNH2 (Homo sapiens, UniProt Q12809)", "sequence (Q12809 whole entry)": "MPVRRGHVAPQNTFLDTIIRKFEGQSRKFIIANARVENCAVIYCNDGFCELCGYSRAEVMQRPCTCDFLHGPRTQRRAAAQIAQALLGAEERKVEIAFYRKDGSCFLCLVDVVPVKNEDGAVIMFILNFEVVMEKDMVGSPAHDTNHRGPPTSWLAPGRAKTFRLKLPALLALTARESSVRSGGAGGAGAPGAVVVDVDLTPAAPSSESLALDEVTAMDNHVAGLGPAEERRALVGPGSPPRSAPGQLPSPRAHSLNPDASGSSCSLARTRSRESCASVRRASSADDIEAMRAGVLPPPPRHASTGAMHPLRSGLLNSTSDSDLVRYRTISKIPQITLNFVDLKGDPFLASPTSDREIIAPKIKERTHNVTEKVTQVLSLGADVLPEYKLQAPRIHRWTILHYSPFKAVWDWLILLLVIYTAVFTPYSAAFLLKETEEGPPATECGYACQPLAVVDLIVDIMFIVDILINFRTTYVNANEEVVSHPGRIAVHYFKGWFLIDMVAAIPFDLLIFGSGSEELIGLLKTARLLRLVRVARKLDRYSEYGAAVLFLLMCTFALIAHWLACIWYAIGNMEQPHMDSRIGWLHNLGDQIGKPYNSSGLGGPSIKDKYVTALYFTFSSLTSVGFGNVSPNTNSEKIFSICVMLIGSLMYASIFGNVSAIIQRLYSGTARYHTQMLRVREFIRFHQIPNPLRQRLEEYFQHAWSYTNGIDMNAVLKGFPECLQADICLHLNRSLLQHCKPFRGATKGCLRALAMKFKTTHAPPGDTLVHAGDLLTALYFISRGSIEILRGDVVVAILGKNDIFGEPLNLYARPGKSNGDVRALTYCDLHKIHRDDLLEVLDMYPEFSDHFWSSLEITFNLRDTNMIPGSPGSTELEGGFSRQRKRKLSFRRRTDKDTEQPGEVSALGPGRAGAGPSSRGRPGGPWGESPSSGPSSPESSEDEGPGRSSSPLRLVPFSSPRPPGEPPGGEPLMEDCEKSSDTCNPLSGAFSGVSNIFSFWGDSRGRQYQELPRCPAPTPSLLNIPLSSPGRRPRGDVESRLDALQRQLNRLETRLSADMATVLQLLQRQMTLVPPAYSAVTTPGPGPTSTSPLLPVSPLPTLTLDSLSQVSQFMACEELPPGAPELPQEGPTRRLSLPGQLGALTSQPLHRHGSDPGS", "conditions": "Potency"}, "[7]": {"target": "1-acylglycerol-3-phosphate O-acyltransferase ABHD5/Perilipin-5 (Homo sapiens, UniProt Q00G26+Q8WTS1)", "sequence (Q00G26 whole entry, the tested form may be a part)": "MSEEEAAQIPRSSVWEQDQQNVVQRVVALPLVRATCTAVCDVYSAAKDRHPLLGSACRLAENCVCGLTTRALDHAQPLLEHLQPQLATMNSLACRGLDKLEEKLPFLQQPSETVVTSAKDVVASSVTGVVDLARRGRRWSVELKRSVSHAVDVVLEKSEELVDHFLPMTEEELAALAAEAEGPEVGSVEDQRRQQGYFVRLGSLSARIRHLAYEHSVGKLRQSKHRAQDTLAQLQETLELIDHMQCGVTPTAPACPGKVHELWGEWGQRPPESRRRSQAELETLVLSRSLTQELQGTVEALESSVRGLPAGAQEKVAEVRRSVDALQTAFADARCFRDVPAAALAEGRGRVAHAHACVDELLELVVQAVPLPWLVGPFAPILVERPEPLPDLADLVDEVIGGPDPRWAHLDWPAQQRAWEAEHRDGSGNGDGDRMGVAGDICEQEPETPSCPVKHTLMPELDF", "sequence (Q8WTS1 whole entry, the tested form may be a part)": "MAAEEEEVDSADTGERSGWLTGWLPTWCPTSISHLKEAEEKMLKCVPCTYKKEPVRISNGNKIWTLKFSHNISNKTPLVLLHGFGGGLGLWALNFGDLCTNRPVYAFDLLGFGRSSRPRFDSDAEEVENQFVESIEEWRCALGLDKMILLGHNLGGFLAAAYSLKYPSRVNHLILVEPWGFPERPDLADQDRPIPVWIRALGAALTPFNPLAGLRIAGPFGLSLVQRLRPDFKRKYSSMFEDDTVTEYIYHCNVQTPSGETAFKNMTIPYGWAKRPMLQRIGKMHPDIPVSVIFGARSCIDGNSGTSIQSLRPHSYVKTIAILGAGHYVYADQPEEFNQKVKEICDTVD", "test": "Luminescence-based biochemical high throughput dose response assay for inhibitors of the interaction of the lipase co-activator protein, abhydrolase domain containing 5 (ABHD5) with perilipin-5 (MLDP; PLIN5) (2K validation set). [Related pubchem assays (depositor defined):AID493035, AID493241]"}, "[8]": {"target": "Protein-arginine deiminase type-4 (Homo sapiens, UniProt Q9UM07)", "sequence (Q9UM07 whole entry)": "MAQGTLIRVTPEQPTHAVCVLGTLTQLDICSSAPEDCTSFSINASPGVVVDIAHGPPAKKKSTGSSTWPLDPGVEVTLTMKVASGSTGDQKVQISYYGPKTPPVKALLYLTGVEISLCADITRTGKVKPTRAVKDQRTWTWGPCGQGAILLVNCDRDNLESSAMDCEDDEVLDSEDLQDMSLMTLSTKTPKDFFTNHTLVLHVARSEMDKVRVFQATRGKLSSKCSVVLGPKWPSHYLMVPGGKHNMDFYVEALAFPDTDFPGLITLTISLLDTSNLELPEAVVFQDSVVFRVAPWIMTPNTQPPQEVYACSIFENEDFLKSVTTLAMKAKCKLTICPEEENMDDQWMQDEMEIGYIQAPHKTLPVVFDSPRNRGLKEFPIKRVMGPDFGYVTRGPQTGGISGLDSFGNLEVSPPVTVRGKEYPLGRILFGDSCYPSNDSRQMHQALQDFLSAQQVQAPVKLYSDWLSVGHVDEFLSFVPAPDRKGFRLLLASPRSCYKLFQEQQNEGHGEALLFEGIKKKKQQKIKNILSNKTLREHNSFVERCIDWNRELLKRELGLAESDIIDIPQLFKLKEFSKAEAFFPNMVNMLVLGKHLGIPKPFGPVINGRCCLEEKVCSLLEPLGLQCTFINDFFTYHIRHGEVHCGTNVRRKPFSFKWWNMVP", "test": "IC50 against protein arginine deiminase 4 – biochemical, fluorescence readout, dose response (AID 492970)"}, "Perilipin-1/ABHD5": {"target": "Perilipin-1/ABHD5 (Homo sapiens, UniProt O60240+Q8WTS1)", "sequence (Q8WTS1 whole entry, the tested form may be a part)": "as the sequence (Q8WTS1 whole entry, the tested form may be a part) above", "sequence (O60240 whole entry, the tested form may be a part)": "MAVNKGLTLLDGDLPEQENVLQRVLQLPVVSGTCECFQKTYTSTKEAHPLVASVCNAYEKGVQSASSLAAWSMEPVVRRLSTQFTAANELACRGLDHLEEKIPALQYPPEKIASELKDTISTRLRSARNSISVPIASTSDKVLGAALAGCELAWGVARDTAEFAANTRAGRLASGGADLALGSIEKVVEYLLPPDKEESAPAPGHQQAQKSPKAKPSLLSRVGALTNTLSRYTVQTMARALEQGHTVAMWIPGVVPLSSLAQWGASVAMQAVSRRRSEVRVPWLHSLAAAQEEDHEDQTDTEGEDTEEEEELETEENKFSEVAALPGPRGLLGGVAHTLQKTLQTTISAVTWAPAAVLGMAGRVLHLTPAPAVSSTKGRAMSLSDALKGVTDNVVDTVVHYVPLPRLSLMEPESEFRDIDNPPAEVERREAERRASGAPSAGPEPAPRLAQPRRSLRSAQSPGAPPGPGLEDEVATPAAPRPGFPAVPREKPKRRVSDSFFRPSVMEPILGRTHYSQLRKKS", "test": "Luminescence-based biochemical high throughput dose response assay for inhibitors of the interaction of the lipase co-activator protein, abhydrolase domain containing 5 (ABHD5) with perilipin-1 (PLIN1) (2K validation set). [Related pubchem assays (depositor defined):AID493027, AID493057]"}, "[9]": {"target": "Glycogen synthase kinase-3 beta (Homo sapiens, UniProt P49841)", "sequence (P49841 whole entry)": "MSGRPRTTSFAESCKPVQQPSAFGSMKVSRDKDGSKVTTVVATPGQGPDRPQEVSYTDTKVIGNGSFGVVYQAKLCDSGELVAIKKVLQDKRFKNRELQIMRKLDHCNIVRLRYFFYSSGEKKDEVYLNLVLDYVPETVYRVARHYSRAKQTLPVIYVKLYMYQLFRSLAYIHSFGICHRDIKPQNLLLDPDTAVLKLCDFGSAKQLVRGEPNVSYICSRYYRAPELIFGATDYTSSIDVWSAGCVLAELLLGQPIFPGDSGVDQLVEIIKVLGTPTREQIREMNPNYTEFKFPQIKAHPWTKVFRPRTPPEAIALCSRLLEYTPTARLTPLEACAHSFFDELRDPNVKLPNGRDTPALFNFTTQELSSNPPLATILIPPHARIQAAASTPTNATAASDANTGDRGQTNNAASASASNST", "test": "Inhibition of Human GSK-3 beta Activity Measured in Biochemical System Using Microfluidics - 2063-05_Inhibitor_Dose_DryPowder_Activity_Set2. [Related pubchem assays (depositor defined):AID2709]"}, "[10]": {"target": "Glycogen synthase kinase-3 alpha (Homo sapiens, UniProt P49840)", "sequence (P49840 whole entry)": "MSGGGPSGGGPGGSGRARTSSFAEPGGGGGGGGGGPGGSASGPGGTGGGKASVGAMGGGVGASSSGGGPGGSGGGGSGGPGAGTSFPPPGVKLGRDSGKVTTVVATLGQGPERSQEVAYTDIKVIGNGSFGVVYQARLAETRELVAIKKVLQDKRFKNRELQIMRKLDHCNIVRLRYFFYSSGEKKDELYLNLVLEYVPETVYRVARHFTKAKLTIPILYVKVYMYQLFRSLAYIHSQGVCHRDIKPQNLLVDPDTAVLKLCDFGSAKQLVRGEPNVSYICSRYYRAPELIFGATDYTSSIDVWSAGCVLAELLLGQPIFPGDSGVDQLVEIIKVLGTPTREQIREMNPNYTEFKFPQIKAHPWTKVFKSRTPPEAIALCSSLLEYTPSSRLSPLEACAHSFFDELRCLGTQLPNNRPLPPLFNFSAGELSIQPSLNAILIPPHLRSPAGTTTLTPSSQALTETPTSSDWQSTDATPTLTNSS", "test": "Inhibition of Human GSK-3 alpha Activity Measured in Biochemical System Using Microfluidics - 2063-06_Inhibitor_Dose_DryPowder_Activity_Set2. [Related pubchem assays (depositor defined):AID2709]"}},
  "note": "Active and inactive are the calls of the source.",
  "data": [
    {"compound": "O=C1S/C(=C\\c2ccc(O)c([N+](=O)[O-])c2)C(=O)N1c1ccccc1Cl", "values": [
      {"measurement": "EC50", "setting": "[1]", "value": "> 120 µM (not active)"},
      {"measurement": "IC50", "setting": "[2]", "value": "> 20 µM (inactive)"},
      {"measurement": "IC50", "setting": "Genome polyprotein", "value": "40.6 µM (active)"},
      {"measurement": "CC50", "setting": "Vero", "value": "> 40 µM (active)"},
      {"measurement": "EC50", "setting": "[3]", "value": "> 53 µM (inactive)"},
      {"measurement": "IC50", "setting": "[4]", "value": "24.4 µM (active)"}
    ]},
    {"compound": "Cc1ccc(S(=O)(=O)N[C@@H](Cc2ccccc2)C(=O)CCl)cc1", "note": "[TPCK]", "values": [
      {"measurement": "AC50", "setting": "[5]", "value": "2.03 µM (active)"},
      {"measurement": "EC50", "setting": "Protein RecA", "value": "0.712 µM (active)"},
      {"measurement": "AC50", "setting": "[6]", "value": "12.6 µM (inconclusive)"},
      {"measurement": "IC50", "setting": "[7]", "value": "1.9 µM (active)"},
      {"measurement": "IC50", "setting": "[8]", "value": "13 µM (inactive)"},
      {"measurement": "IC50", "setting": "Perilipin-1/ABHD5", "value": "1.87 µM (active)"}
    ]},
    {"compound": "O=C(Nc1ccsc1C(=O)NC1CCCCC1)c1ccc(F)cc1", "values": [
      {"measurement": "AC50", "setting": "[9]", "value": "6.28 µM (active)"},
      {"measurement": "AC50", "setting": "[10]", "value": "24.9 µM (active)"}
    ]}
  ]
}
